A word on the IC50: it is the midpoint of a concentration-inhibition curve.

The structures appear in SMILES notation. Structures can show the parent of a compound that is named as a salt.

Here are results for 32 molecules from US20240166610A1, “SUBSTITUTED PYRIDAZINE PHENOL DERIVATIVES” (MEDSHINE DISCOVERY INC., priority 2021, published 2024).

For data set [1], the target named is T1, NLRP3 (Homo sapiens, UniProt Q96P20).
T1 construct: This experiment utilized the human-derived monocyte cell line THP1; endogenous in cells; host or cells: THP-1 (human monocyte line, PMA-differentiated into macrophages)
In words: Detecting IC50 of NLRP3 inhibitor by using THP-1 cells (IL-1β secretion, CBA). It is filed as cell-based. The following applies: PMA/LPS/ATP, IL-1β in supernatant. An excerpt: 1. Experimental principle: This experiment utilized the human-derived monocyte cell line THP1 to investigate the inhibitory activity (IC50) of NLRP3 inhibitor on cellular IL-1β secretion. PMA (12-O-tetradecanoylphorbol-13-acetate) was used to differentiate the monocyte cell line THP1 into mature macrophages, which were then stimulated using LPS (lipopolysaccharide), an agonist of the Toll-like receptor TLR4, to activate the transcriptional activity of the inflammasome NLRP3 and the expression of pro-IL-1β, a precursor of IL-1β. At this time, the inhibitor of NLRP3 was added, and then ATP (adenosine triphosphate) was added to further mature and activate NLRP3, and activate downstream caspase-1. Activated caspase-1 may enzymatically process pro-IL-1β into mature IL-1β that can be secreted.
(1) The density of THP1 cells was adjusted to 5×10^5 cells/mL, then PMA was added, and the final concentration was adjusted to 100 ng/mL. The cells were inoculated 200 μL/well into a 96-well flat-bottom plate, stimulated overnight (<16 hours if possible) at 37° C. and 5% CO2.
(2) The supernatant was discarded the next day, and then the cells were carefully washed twice with Dulbecco's phosphate-buffered saline (200 μL/time).
(3) The cells were stimulated with LPS at a final concentration of 100 ng/mL, added to a 96-well plate (200 μL/well), and cultured at 37° C. and 5% CO2 for 3 hours.
The cells were incubated for 1 hour in a 37° C., 5% CO2 incubator.
(5) ATP was added to each well with a final concentration of 5 mM, and cultured overnight (>18 hours) at 37° C. and 5% CO2.
(6) On the third day, 5 μL of the supernatant was taken, diluted 10-fold, and the content of IL-1β in the supernatant was detected by cytometric bead array (CBA).

A short description of data set [2]: In vivo pharmacokinetic evaluation in CD-1 mice. The following applies: male, mouse, plasma, dose IV/PO 1/2 mg/kg; for half-life / clearance / Vd: 1 mg/kg; for half-life: IV, read-out: Half-life T1/2 (IV) (converted); for clearance: read-out: Clearance rate CL; for Vd: read-out: Tissue distribution Vdss; for AUC(0-t): PO, read-out: Area under drug-time curve AUC0-last PO; for bioavailability: read-out: Bioavailability F; for Cmax: read-out: Peak concentration Cmax. As for the experimental part:
Experimental Example 2: In Vivo Pharmacokinetic Evaluation of Compounds in CD-1 Mice
Experimental purpose: To test the in vivo pharmacokinetics of the compounds in CD-1 mice
CD-1 mice (male, 7 to 9 weeks old)
The rodent pharmacokinetic characteristics after intravenous injection and oral administration of the compounds were tested using a standard protocol. The candidate compound was prepared as a clear solution during the experiment and given to mice for single intravenous injection and oral administration. The vehicle for intravenous injection and oral administration was a mixed vehicle composed of 5% dimethyl sulfoxide and 95% 5% solutol. Four male CD-1 mice were used in this project. Two mice were administered intravenously (IV), and plasma samples were collected at 0 hours (before administration) and 0.0833, 0.25, 0.5, 1, 2, 4, 8, and 24 hours after administration. The other two mice were administered orally by gavage (PO), and plasma samples were collected at 0 hours (before administration) and 0.25, 0.5, 1, 2, 4, 8, and 24 hours after administration. The plasma concentration was quantitatively analyzed by LC-MS/MS analysis method, and the pharmacokinetic parameters were calculated, such as peak concentration (Cmax), clearance rate (CL), half-life (T1/2), […] (Vdss), area under drug-time curve (AUC0-last), bioavailability (F).

Data set [3] in a line: In vivo pharmacokinetic evaluation in SD rats. Conditions: male, rat, plasma, dose IV/PO 1/2 mg/kg; for half-life / clearance / Vd: 1 mg/kg; for half-life: IV, read-out: Half-life T1/2 (IV) (converted); for clearance: read-out: Clearance rate CL; for Vd: read-out: Tissue distribution Vdss; for AUC(0-t): PO, read-out: Area under drug-time curve AUC0-last PO; for bioavailability: read-out: Bioavailability F; for Cmax: read-out: Peak concentration Cmax. On the procedure:
Experimental Example 3: In Vivo Pharmacokinetic Evaluation of Compounds in SD Rats
Experimental Purpose: To Test the In Vivo Pharmacokinetics of the Compounds in SD Rats
The rodent pharmacokinetic characteristics after intravenous injection and oral administration of the compounds were tested using a standard protocol. The candidate compound was prepared as a clear solution during the experiment and given to SD rats for single intravenous injection and oral administration. The vehicle for intravenous injection and oral administration was a mixed vehicle composed of 5% dimethyl sulfoxide and 95% 5% solutol. Four male SD rats were used in this project. Two SD rats were administered intravenously, and plasma samples were collected at 0.083, 0.25, 0.5, 1, 2, 4, 8, and 24 hours after administration. The other two SD rats were administered orally by gavage, and plasma samples were collected at 0.25, 0.5, 1, 2, 4, 8, and 24 hours after administration. The plasma concentration was quantitatively analyzed by LC-MS/MS analysis method, and the pharmacokinetic parameters were calculated, such as peak concentration (Cmaz), clearance rate (CL), half-life (T1/2), […] (Vdss), area under drug-time curve (AUC0-last), bioavailability (F).

T1 sequence (Q96P20 whole entry): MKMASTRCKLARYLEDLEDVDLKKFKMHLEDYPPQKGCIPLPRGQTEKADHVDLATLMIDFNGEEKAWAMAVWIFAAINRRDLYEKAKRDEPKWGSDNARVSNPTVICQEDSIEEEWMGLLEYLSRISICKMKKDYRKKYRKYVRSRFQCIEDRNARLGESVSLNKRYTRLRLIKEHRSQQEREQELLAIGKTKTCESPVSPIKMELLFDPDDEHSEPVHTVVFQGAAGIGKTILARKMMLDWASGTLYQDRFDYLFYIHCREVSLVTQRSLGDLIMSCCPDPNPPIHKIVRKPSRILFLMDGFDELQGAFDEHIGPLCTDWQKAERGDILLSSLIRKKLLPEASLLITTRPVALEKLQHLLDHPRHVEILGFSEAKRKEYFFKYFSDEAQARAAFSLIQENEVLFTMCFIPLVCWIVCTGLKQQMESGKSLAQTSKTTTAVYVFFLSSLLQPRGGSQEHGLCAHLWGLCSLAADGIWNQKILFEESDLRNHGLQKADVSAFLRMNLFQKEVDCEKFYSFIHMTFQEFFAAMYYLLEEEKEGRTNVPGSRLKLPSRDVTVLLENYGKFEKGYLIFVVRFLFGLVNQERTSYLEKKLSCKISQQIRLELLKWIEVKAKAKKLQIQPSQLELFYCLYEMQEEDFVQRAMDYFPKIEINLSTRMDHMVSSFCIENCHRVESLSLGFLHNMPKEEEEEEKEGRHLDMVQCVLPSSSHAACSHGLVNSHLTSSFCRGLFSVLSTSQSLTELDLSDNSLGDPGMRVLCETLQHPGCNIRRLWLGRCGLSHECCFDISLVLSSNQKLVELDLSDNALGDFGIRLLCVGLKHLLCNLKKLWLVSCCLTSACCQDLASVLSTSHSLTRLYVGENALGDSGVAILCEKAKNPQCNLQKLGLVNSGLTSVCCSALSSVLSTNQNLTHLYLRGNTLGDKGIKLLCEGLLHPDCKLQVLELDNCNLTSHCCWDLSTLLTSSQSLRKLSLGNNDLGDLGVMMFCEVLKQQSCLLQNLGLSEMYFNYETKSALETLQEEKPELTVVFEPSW

In turn, `Cc1cc(N[C@@H]2CCCN(C)C2)nnc1-c1ccc2c(c1O)CCC2` [Compound 2] registered an IC50 in data set [1] of 0.24 nM. Turning to `Cc1cc(N[C@@H]2CCCN(C)C2)nnc1-c1ccc(-c2ccc(F)cc2)cc1O` [Compound 4], in data set [2], the half-life was 25.7 h, the clearance was 0.795 mL/min/kg, the Vd worked out at 1.72 L/kg and the AUC(0-t) was determined as 54.3 µM·h. For the same molecule, in data set [2], the bioavailability stood at 102% and the Cmax was determined as 2900 nM. On to `Cc1cc(N[C@@H]2CCCN(CC(N)=O)C2)nnc1-c1ccc2c(c1O)CCC2` [Compound 12b], for which the 50% inhibitory concentration (IC50) in data set [1] is 3.13 nM. This lies in the single-digit nanomolar range. The same measure, in the same setting: then `Cc1cc(N[C@@H]2CCCN(C3COC3)C2)nnc1-c1ccc(C2CCC2)cc1O` [Compound 25], with 31.1 nM. On to `Cc1cc(N[C@@H]2CCCN(C3COC3)C2)nnc1-c1ccc2sccc2c1O` [Compound 26], for which, in data set [1], the IC50 is 0.52 nM. Moreover, in data set [3], the half-life was 1.1 h, the clearance was 12.3 mL/min/kg, the Vd was found to be 0.789 L/kg and the AUC(0-t) worked out at 7.4 µM·h. In addition, in data set [3], the bioavailability came out at 108% and the Cmax was 2910 nM. In data set [2], the half-life is 1.75 h, the clearance stood at 16.6 mL/min/kg, the Vd was found to be 1.71 L/kg and the AUC(0-t) came out at 3.9 µM·h. In data set [2], the bioavailability was 78.8% and the Cmax came to 2070 nM. Molecule `Cc1cc(N[C@@H]2CCCN(C3COC3)C2)nnc1-c1ccc(C2CCCC2)cc1O` [Compound 27a] returned a concentration for half-maximal inhibition (IC50) in data set [1] of 41.5 nM. The same measure, in the same setting: then `Cc1cc(N[C@@H]2CCCN(C3COC3)C2)nnc1-c1ccc(C2=CCCC2)cc1O` [Compound 27b], with 25.5 nM. On the same count and under the same terms, as for `Cc1cc(N[C@@H]2CCCN(C3COC3)C2)nnc1-c1ccc2ccccc2c1O` [Compound 28], the figure is 18.7 nM; as for `Cc1cc(N[C@@H]2CCCN(C3CCOC3)C2)nnc1-c1ccc(C2CC2)cc1O` (stereo partly shown) [Compound 30], 3.39 nM; as for `Cc1cc(N[C@@H]2CCCN(C3CCOCC3)C2)nnc1-c1ccc(C2CC2)cc1O` [Compound 31], 2.09 nM. `Cc1cc(N[C@@H]2CCCN(C(C)C)C2)nnc1-c1ccc2sccc2c1O` [Compound 39]: the 50% inhibitory concentration (IC50) in data set [1] came out at 0.09 nM. Moreover, in data set [3], the half-life was 2.19 h, the clearance worked out at 15.3 mL/min/kg, the Vd is 2.63 L/kg and the AUC(0-t) amounted to 4.53 µM·h. Also, in data set [3], the bioavailability is 85.1% and the Cmax turned out to be 573 nM. In turn, `Cc1cc(N[C@@H]2CCCN(CC3CC3)C2)nnc1-c1ccc2sccc2c1O` [Compound 40] showed an IC50 in data set [1] of 0.19 nM. The same measure, in the same setting: as for `Cc1cc(N[C@@H]2CCCN(C(=O)C3CC3)C2)nnc1-c1ccc2sccc2c1O` [Compound 41], the figure is 6.87 nM; as for `COC1CC(N2CCC[C@@H](Nc3cc(C)c(-c4ccc5sccc5c4O)nn3)C2)C1` (stereo partly shown) [Compound 49], 0.882 nM. On the same count and under the same terms, then `Cc1cc(NC2CCCN(C3CC(O)C3)C2)nnc1-c1ccc2sccc2c1O` (stereo not shown) [Compound 50], with 1.94 nM; and `Cc1cc(N[C@@H]2CCCN(C(=O)CCN(C)C)C2)nnc1-c1ccc2sccc2c1O` [Compound 51], with 0.142 nM. In data set [1], `Cc1cc(N[C@@H]2CCCN(C3CCOC3)C2)nnc1-c1ccc2sccc2c1O` (stereo partly shown) [Formate of compound 42] displayed a 50% inhibitory concentration (IC50) of 0.274 nM. In addition, in data set [3], the half-life was 1.72 h, the clearance is 6.08 mL/min/kg, the Vd came to 0.837 L/kg and the AUC(0-t) was 9.15 µM·h. In data set [3], the bioavailability turned out to be 71.2% and the Cmax amounted to 2100 nM. In data set [1], `Cc1cc(N[C@@H]2CCCN(C)C2)nnc1-c1ccc2ccsc2c1O` [Formate of compound 45] registered a half-maximal inhibitory concentration (IC50) of 0.078 nM. In other words, the picomolar range. Same read-out and setting: as for `Cc1cc(N[C@@H]2CCCN(C3CCOCC3)C2)nnc1-c1ccc2sccc2c1O` [Formate of compound 46], the figure is 0.289 nM; as for `Cc1cc(N[C@@H]2CCCN(CC(C)(C)O)C2)nnc1-c1ccc2sccc2c1O` [Formate of compound 47], 0.69 nM; as for `Cc1cc(N[C@@H]2CCCN(C3CCC3)C2)nnc1-c1ccc2c(c1O)CCC2` [Hydrochloride of compound 19], 0.76 nM. In turn, `Cc1cc2c(O)c(-c3nnc(N[C@@H]4CCCN(C)C4)cc3C)ccc2s1` [Hydrochloride of compound 43] had a half-inhibitory concentration (IC50) in data set [1] of 1.76 nM. Still for that read-out and setting: as for `Cc1cc(N[C@@H]2CCCN(C)C2)nnc1-c1ccc2sc(F)cc2c1O` [Hydrochloride of compound 44a], the figure is 0.076 nM; as for `Cc1cc(N[C@@H]2CCCN(C)C2)nnc1-c1ccc2sc(F)c(F)c2c1O` [Hydrochloride of compound 44b], 4.19 nM. Same read-out and setting: as for `Cc1cc2c(O)c(-c3nnc(NCCN(C)C)cc3C)ccc2s1` [Hydrochloride of compound 58], the figure is 0.85 nM. The same measure, in the same setting: as for `Cc1cc(N[C@H]2CCCC[C@@H]2O)nnc1-c1ccc2sccc2c1O` [Hydrochloride of compound 64], the figure is 21.1 nM; as for `Cc1cc(Nc2cccnc2)nnc1-c1ccc2sccc2c1O` [Hydrochloride of compound 65], 6.07 nM; as for `Cc1cc2c(O)c(-c3nnc(N[C@H]4COC[C@@H]4O)cc3C)ccc2s1` [Hydrochloride of compound 66], 8.18 nM.

The molecule `Cc1cc2c(O)c(-c3nnc(N[C@@H]4CCCC[C@H]4O)cc3C)ccc2s1` [Hydrochloride of compound 67] had an IC50 in data set [1] of 16.6 nM. This IC50 is about 2-fold higher than that of the molecule before. Same read-out and setting: as for `Cc1c(N[C@@H]2CCCN(C)C2)nnc(-c2ccc3sccc3c2O)c1C` [Hydrochloride of compound 72], the figure is 0.318 nM; as for `Cc1c(N[C@@H]2CCCC[C@H]2O)nnc(-c2ccc3sccc3c2O)c1C` [Hydrochloride of compound 73], 3.21 nM; as for `CN1CCC[C@@H](Nc2ccc(-c3ccc4sccc4c3O)nn2)C1` [Hydrochloride of compound 74], 19.4 nM.
